IC50 data for one compound are collected here from paper PMC9174266, “Isolation, characterization and biological activities of betulin from Acacia nilotica bark” (Scientific Reports, 2022).

The structures appear in SMILES notation.

For orientation: IC50 means the concentration that inhibits the measured activity by half. A low value points to inhibition by little substance.

The target in assay [1] is T1, COX-1 (Ovis aries, UniProt P05979).
T1 construct: gene PTGS1
T1 sequence (P05979 25-600): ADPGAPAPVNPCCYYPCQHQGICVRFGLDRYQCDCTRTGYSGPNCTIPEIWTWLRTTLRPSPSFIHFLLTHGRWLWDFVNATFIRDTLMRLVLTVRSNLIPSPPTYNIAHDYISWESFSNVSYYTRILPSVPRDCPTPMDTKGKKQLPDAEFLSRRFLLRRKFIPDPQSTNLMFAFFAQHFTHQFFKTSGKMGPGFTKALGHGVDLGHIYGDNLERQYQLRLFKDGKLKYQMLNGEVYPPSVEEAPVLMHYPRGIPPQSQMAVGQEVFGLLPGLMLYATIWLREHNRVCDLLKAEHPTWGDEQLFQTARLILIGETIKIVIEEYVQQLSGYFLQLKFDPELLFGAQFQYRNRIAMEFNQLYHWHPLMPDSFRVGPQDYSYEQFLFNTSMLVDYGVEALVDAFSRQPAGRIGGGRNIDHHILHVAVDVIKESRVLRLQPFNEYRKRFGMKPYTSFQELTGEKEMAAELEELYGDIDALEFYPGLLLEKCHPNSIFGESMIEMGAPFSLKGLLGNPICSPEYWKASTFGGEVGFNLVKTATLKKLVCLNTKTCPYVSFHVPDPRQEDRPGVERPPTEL
The assay is described as follows: COX (ovine) inhibitor screening assay kit; […] inhibition at […]. In kind it is biochemical.

For assay [2], the target named is T2, COX-2 (Ovis aries, UniProt P79208).
T2 construct: gene PTGS2
T2 sequence (P79208 17-603): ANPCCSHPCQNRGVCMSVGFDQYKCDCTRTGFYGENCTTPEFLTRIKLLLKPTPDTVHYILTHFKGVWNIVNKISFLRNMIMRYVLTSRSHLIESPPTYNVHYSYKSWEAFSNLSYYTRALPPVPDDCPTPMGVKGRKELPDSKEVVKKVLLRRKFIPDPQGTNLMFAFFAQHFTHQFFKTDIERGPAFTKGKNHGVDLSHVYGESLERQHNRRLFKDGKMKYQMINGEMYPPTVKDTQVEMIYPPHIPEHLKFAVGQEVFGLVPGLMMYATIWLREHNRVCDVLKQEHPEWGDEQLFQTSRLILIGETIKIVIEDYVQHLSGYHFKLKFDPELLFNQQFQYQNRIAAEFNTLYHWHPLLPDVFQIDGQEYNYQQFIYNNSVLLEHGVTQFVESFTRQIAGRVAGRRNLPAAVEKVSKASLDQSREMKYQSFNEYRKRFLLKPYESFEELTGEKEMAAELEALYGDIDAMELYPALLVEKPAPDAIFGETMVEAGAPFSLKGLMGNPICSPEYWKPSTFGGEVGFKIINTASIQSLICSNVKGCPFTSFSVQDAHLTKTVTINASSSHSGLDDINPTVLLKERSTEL
The assay is described as follows: COX (ovine) inhibitor screening assay kit, PGF2α produced by SnCl2 reduction of COX-derived PGH2, read at […] nm. In kind it is biochemical.

Consider `C=C(C)[C@@H]1CC[C@]2(CO)CC[C@]3(C)[C@H](CC[C@@H]4[C@@]5(C)CC[C@H](O)C(C)(C)[C@@H]5CC[C@]43C)[C@@H]12` [AN-10], for which the half-inhibitory concentration (IC50) in assay [1] is above 10 µM; in assay [2], below 1 µM.
